The text below walks through data of ChEMBL document CHEMBL1150559 (Bioorg Med Chem Lett, 1997).

Converted amounts (≈) assume the structure as drawn.

T1 sequence (P35367 whole entry): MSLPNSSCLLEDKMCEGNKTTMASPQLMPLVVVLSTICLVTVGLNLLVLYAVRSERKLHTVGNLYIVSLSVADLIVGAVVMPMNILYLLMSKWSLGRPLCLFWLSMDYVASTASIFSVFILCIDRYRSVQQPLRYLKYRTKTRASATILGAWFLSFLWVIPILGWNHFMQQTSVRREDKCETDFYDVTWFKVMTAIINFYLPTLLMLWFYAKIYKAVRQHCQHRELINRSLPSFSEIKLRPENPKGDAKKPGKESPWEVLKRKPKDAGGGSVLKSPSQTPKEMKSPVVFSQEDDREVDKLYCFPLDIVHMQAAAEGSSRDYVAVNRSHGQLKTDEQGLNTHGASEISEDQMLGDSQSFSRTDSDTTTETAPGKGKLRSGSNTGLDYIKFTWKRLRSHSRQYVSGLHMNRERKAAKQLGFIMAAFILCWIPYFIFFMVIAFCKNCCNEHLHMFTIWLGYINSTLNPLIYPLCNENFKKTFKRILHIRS
Sequence of Substance-P receptor (Homo sapiens, UniProt P25103) (P25103 whole entry): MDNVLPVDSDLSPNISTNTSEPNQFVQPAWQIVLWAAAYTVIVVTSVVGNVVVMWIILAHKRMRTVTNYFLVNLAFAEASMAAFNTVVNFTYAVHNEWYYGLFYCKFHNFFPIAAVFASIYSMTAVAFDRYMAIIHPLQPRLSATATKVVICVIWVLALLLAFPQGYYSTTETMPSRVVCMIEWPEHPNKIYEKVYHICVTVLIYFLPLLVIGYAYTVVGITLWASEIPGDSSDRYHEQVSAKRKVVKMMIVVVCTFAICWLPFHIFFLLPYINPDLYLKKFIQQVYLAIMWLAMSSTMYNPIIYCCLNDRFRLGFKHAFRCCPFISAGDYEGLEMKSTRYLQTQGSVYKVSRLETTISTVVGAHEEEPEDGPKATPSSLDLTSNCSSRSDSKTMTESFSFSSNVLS

Tested on in one data set: not listed separately
The data set is described as follows: Compound was tested for its solubility at pH 7.4. The format is physicochemical. The note with it: buffer.
One may read the solubility as the dissolved amount per volume that the medium holds. Low values mean little dissolved substance, high ones much dissolved substance. Turning to `COc1ccc(C2(CCN3CCC(C(=O)c4nc5ccccc5n4Cc4ccc(F)cc4)CC3)CCN(C(=O)c3cc(OC)c(OC)c(OC)c3)C2)cc1OC` (centres undefined), the solubility is under 0.0001 mg/mL.

In turn, `COc1cc(C(=O)N2CCC(CCN3CCC(C(=O)c4nc5ccccc5n4Cc4ccccn4)CC3)(c3ccccc3)C2)cc(OC)c1OC` (centres undefined) came in with a solubility of 0.038 mg/mL (≈ 55.2 µM).

Another data set addresses T1, Histamine H1 receptor (Homo sapiens, UniProt P35367). The data set is described as follows: Compound was evaluated for the antagonistic activity against H1 receptor.
Conditions: not given
The format is functional.
By IC50 is commonly meant the midpoint of a concentration-inhibition curve. As to `COc1cc(C(=O)N2CC[C@](CCN3CCC(C(N)=O)(c4ccccc4)CC3)(c3ccc(Cl)c(Cl)c3)C2)cc(OC)c1OC`, 10 µM corresponded to half-maximal inhibition (IC50).

The species entered for another data set is Cavia porcellus. Briefly: Compound with maleate salt was tested for inhibition of histamine-induced skin wheal response in guinea pigs.
Conditions: not given
The format is functional.
For orientation: ED50 means the midpoint of the dose-response relation. As to `COc1ccc(C2(CCN3CCC(C(=O)c4nc5ccccc5n4Cc4ccc(F)cc4)CC3)CCN(C(=O)c3cc(OC)c(OC)c(OC)c3)C2)cc1OC` (centres undefined), the 50% effective dose (ED50) was 18.9 mg/kg.

Turning to `COc1cc(C(=O)N2CCC(CCN3CCC(C(=O)c4nc5ccccc5n4Cc4ccccn4)CC3)(c3ccccc3)C2)cc(OC)c1OC` (centres undefined), the median effective dose (ED50) turned out to be 10.3 mg/kg.

Tested on in a further data set: not listed separately
Briefly: Compound was calculated log P. The note with it: pH 7.4.
As a reminder, the logP is the decadic logarithm of the partition coefficient of the neutral form, usually between octanol and water. On to `COc1ccc(C2(CCN3CCC(C(=O)c4nc5ccccc5n4Cc4ccc(F)cc4)CC3)CCN(C(=O)c3cc(OC)c(OC)c(OC)c3)C2)cc1OC` (centres undefined), for which the logP was 4.72.

For the compound `COc1cc(C(=O)N2CCC(CCN3CCC(C(=O)c4nc5ccccc5n4Cc4ccccn4)CC3)(c3ccccc3)C2)cc(OC)c1OC` (centres undefined), the logP is 3.22.

The species entered for the next data set is Cavia porcellus. The data set is described as follows: Inhibition of histamine-induced contraction of guinea pig ileum in a concentration-dependent fashion. The format is functional. The note with it: read-out: pA2 (converted).
On to `COc1ccc(C2(CCN3CCC(C(=O)c4nc5ccccc5n4Cc4ccc(F)cc4)CC3)CCN(C(=O)c3cc(OC)c(OC)c(OC)c3)C2)cc1OC` (centres undefined), for which the Kb was 0.0302 µM.

Another data set addresses T1, Histamine H1 receptor.
Experiment: not given
The format is functional.
Conditions: not given
For the compound `COC(=O)c1ccccc1OCCCn1c(C(=O)C2CCN(CCC3(c4ccccc4)CCN(C(=O)c4cc(OC)c(OC)c(OC)c4)C3)CC2)nc2ccccc21` (centres undefined), half-maximal inhibition (IC50) required 0.994 µM.

Consider `COC(=O)c1ccc(Cn2c(C(=O)C3CCN(CCC4(c5ccccc5)CCN(C(=O)c5cc(OC)c(OC)c(OC)c5)C4)CC3)nc3ccccc32)cc1` (centres undefined), for which half-maximal inhibition (IC50) was put at 1.21 µM.

With `COc1cc(C(=O)N2CCC(CCN3CCC(C(=O)c4nc5ccccc5n4CCOCc4ccco4)CC3)(c3ccccc3)C2)cc(OC)c1OC` (centres undefined), the half-maximal inhibitory concentration (IC50) was determined as 0.446 µM.

Regarding `COc1cc(C(=O)N2CCC(CCN3CCC(C(=O)c4nc5ccccc5n4Cc4ccc(F)cc4)CC3)(c3ccc(Cl)c(Cl)c3)C2)cc(OC)c1OC` (centres undefined), the midpoint of inhibition, the IC50, lay at 0.124 µM.

For the compound `COc1cc(C(=O)N2CCC(CCN3CCC(C(=O)c4nc5ccccc5n4Cc4ccc(C(=O)O)cc4)CC3)(c3ccccc3)C2)cc(OC)c1OC` (centres undefined), it took 3.42 µM to reach half-maximal inhibition (IC50).

`COc1cc(C(=O)N2CCC(CCN3CCC(C(=O)c4nc5ccccc5n4CCCOc4ccccc4C(=O)O)CC3)(c3ccccc3)C2)cc(OC)c1OC` (centres undefined) returned an IC50 of 9.45 µM.

The compound `COc1ccc(C2(CCN3CCC(C(=O)c4nc5ccccc5n4Cc4ccc(F)cc4)CC3)CCN(C(=O)c3cc(OC)c(OC)c(OC)c3)C2)cc1OC` (centres undefined) yielded an IC50 of 0.309 µM.

For the compound `COc1ccccc1CN[C@H]1C2CCN(CC2)[C@H]1C(c1ccccc1)c1ccccc1` [CP-96345], the IC50 is about 10 µM.

The target in the next data set is Substance-P receptor (Cavia porcellus, UniProt P30547). The data set is described as follows: Antagonism of the guinea pig tachykinin NK1 receptor. The format is functional.
Sequence of Substance-P receptor (Cavia porcellus, UniProt P30547) (P30547 whole entry): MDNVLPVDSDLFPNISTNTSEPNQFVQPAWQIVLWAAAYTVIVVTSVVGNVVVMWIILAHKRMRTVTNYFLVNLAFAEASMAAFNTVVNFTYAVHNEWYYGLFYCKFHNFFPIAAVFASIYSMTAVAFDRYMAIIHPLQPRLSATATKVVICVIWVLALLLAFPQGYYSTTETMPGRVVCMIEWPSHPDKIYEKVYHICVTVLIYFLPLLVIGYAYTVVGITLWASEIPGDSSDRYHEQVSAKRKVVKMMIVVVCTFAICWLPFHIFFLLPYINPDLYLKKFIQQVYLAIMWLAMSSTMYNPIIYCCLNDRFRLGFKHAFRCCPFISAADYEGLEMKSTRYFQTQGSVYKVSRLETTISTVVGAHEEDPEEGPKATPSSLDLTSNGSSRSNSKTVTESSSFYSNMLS
Conditions: not given
In turn, `COc1cc(C(=O)N2CCC(CCN3CCC(C(=O)c4nc5ccccc5n4Cc4ccc(F)cc4)CC3)(c3ccc(F)cc3F)C2)cc(OC)c1OC` (centres undefined) returned an IC50 of 0.296 µM.

Turning to `COC(=O)c1ccccc1OCCCn1c(C(=O)C2CCN(CCC3(c4ccccc4)CCN(C(=O)c4cc(OC)c(OC)c(OC)c4)C3)CC2)nc2ccccc21` (centres undefined), it took 0.016 µM to reach half-maximal inhibition (IC50).

The compound `CCOCCn1c(C(=O)C2CCN(CCC3(c4ccccc4)CCN(C(=O)c4cc(OC)c(OC)c(OC)c4)C3)CC2)nc2ccccc21` (centres undefined) yielded an IC50 of 0.026 µM.

`COC(=O)c1ccc(Cn2c(C(=O)C3CCN(CCC4(c5ccccc5)CCN(C(=O)c5cc(OC)c(OC)c(OC)c5)C4)CC3)nc3ccccc32)cc1` (centres undefined): the IC50 was found to be 0.023 µM.

In turn, `COc1cc(C(=O)N2CCC(CCN3CCC(C(=O)c4nc5ccccc5n4CCOCc4ccco4)CC3)(c3ccccc3)C2)cc(OC)c1OC` (centres undefined) registered a concentration for half-maximal inhibition (IC50) of 0.012 µM.

In turn, `COc1cc(C(=O)N2CCC(CCN3CCC(C(=O)c4nc5ccccc5n4Cc4cccnc4)CC3)(c3ccccc3)C2)cc(OC)c1OC` (centres undefined) returned an IC50 of 0.027 µM.

On to `COc1cc(C(=O)N2CCC(CCN3CCC(C(=O)c4nc5ccccc5n4Cc4ccc(F)cc4)CC3)(c3ccc(Cl)c(Cl)c3)C2)cc(OC)c1OC` (centres undefined), for which the half-inhibitory concentration (IC50) stood at 0.092 µM.

As to `COc1cc(C(=O)N2CCC(CCN3CCC(C(=O)c4nc5ccccc5[nH]4)CC3)(c3ccccc3)C2)cc(OC)c1OC` (centres undefined), the IC50 came to 0.036 µM.

Take `COc1cc(C(=O)N2CCC(CCN3CCC(C(=O)c4nc5ccccc5n4Cc4ccncc4)CC3)(c3ccccc3)C2)cc(OC)c1OC` (centres undefined): the IC50 amounted to 0.037 µM.

The compound `COc1ccc(C2(CCN3CCC(C(=O)c4nc5ccccc5n4Cc4ccccn4)CC3)CCN(C(=O)c3cc(OC)c(OC)c(OC)c3)C2)cc1` (centres undefined) registered an IC50 of 0.042 µM.

In turn, `COc1cc(C(=O)N2CCC(CCN3CCC(C(=O)c4nc5ccccc5n4Cc4ccc(F)cc4)CC3)(c3ccccc3)C2)cc(OC)c1OC` (centres undefined) had an IC50 of 0.034 µM.

For the compound `COc1cc(C(=O)N2CCC(CCN3CCC(C(=O)c4nc5ccccc5n4Cc4ccccn4)CC3)(c3ccc(Cl)c(Cl)c3)C2)cc(OC)c1OC` (centres undefined), the IC50 worked out at 0.032 µM.

`COc1cc(C(=O)N2CCC(CCN3CCC(C(=O)c4nc5ccccc5n4Cc4ccc(C(=O)O)cc4)CC3)(c3ccccc3)C2)cc(OC)c1OC` (centres undefined): half-maximal inhibition (IC50) was put at 0.036 µM.

On to `COc1cc(C(=O)N2CCC(CCN3CCC(C(=O)c4nc5ccccc5n4CCCOc4ccccc4C(=O)O)CC3)(c3ccccc3)C2)cc(OC)c1OC` (centres undefined), for which half-maximal inhibition (IC50) required 0.027 µM.

Turning to `COc1cc(C(=O)N2CCC(CCN3CCC(C(=O)c4nc5ccccc5n4Cc4ccc(F)cc4)CC3)(c3ccc(C(F)(F)F)cc3)C2)cc(OC)c1OC` (centres undefined), the IC50 was determined as 0.117 µM.

Take `COc1cc(C(=O)N2CCC(CCN3CCC(C(=O)c4nc5ccccc5n4Cc4ccco4)CC3)(c3ccccc3)C2)cc(OC)c1OC` (centres undefined): the IC50 was 0.021 µM.

Take `COc1cc(C(=O)N2CCC(CCN3CCC(C(=O)c4nc5ccccc5n4Cc4ccccn4)CC3)(c3ccccc3)C2)cc(OC)c1OC` (centres undefined): the IC50 came to 0.027 µM.

Consider `CC(C)(C)c1ccc(C(O)CCCN2CCC(C(O)(c3ccccc3)c3ccccc3)CC2)cc1` (centres undefined) [TERFENADINE], for which the IC50 is over 10 µM.

Another data set has as its target Substance-P receptor (Homo sapiens, UniProt P25103). The data set is described as follows: Compound was evaluated for the antagonistic activity against NK1 receptor.
Conditions: not given
The format is functional.
Consider `COc1cc(C(=O)N2CC[C@](CCN3CCC(C(N)=O)(c4ccccc4)CC3)(c3ccc(Cl)c(Cl)c3)C2)cc(OC)c1OC`, for which the IC50 is 0.003 µM.

Consider `COc1ccc(CCN2CCC(C(=O)c3nc4ccccc4n3Cc3ccc(F)cc3)CC2)cc1`, for which 5.2 µM corresponded to half-maximal inhibition (IC50).

For a further data set, the target named is T2, Substance-K receptor (Homo sapiens, UniProt P21452).
T2 sequence (P21452 whole entry): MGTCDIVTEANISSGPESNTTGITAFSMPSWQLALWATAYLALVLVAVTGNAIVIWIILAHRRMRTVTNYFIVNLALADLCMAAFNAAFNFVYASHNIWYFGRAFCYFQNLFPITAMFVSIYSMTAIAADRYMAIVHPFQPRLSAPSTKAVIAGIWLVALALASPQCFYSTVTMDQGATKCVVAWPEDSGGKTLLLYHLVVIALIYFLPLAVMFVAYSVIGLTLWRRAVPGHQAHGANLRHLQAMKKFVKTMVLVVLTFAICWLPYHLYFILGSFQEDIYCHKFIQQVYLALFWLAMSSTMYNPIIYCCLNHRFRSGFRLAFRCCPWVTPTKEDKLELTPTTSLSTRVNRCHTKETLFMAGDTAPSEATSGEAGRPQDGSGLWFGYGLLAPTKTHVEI
The data set is described as follows: Compound was evaluated for the antagonistic activity against Tachykinin receptor 2.
Conditions: not given
It counts as functional.
As to `COc1cc(C(=O)N2CC[C@](CCN3CCC(C(N)=O)(c4ccccc4)CC3)(c3ccc(Cl)c(Cl)c3)C2)cc(OC)c1OC`, the IC50 amounted to 0.008 µM.

The compound `COc1ccc(CCN2CCC(C(=O)c3nc4ccccc4n3Cc3ccc(F)cc3)CC2)cc1` displayed an IC50 of 3.39 µM.

Tested on in a further data set: not listed separately
Briefly: Dose-dependent inhibition of SP-induced increases in phosphatidylinositol turnover in UC11 cells. The note with it: Homo sapiens, read-out: pA2 (converted). It counts as functional, cell-based.
As for `COc1ccc(C2(CCN3CCC(C(=O)c4nc5ccccc5n4Cc4ccc(F)cc4)CC3)CCN(C(=O)c3cc(OC)c(OC)c(OC)c3)C2)cc1OC` (centres undefined), the Kb is 0.0661 µM.
